This is an account of results in patent publication US20230277518A1, “NK RECEPTOR ANTAGONISTS FOR CANCER PATIENTS” (Acer Therapeutics Inc., priority 2020, published 2023).

Data set [1] in a line: Two-compartment PK model of osanetant fit to the Sanofi single-dose study. On the set-up: species or system human. The note with it: two-compartment model parameter. The source says: Osanetant (SR 142801) is an NK3 receptor antagonist originally identified by Sanofi. Patacchini R. et al. 1995, Eur J Pharmacol 278 (1):17-25; Nguyen-Le X. K. et al. 1996, Pharmacology 52 (5):283-91; Beaujouan J. C. et al. 1997, Eur J Pharmacol 319 (2-3):307-16; Emonds-Alt X. et al. 1995, Life Sci 56 (1):P127-32). Osanetant pharmacokinetics (PK) was derived from a Study Report by Sanofi describing concentration curves and PK summary data. A two-compartment PK model was derived from the data the concentration: time curves. […] A two-compartment pharmacokinetic model was fit to the single-dose study in the Sanofi Study report.

For data set [2] the following is noted: oral dosing, set in the multiple-dose PK model; cited from earlier work.
For data set [3] the following is noted: animal study; cited from earlier work.
The next data set has as its target CYP3A4 (Homo sapiens, UniProt P08684). Conditions: liver; cited from earlier work.
The next data set deals with CYP2D6 (Homo sapiens, UniProt P10635). Conditions: cited from earlier work.
For data set [4] the following is noted: human, in vivo; cited from earlier work.

CYP3A4, sequence (P08684 whole entry): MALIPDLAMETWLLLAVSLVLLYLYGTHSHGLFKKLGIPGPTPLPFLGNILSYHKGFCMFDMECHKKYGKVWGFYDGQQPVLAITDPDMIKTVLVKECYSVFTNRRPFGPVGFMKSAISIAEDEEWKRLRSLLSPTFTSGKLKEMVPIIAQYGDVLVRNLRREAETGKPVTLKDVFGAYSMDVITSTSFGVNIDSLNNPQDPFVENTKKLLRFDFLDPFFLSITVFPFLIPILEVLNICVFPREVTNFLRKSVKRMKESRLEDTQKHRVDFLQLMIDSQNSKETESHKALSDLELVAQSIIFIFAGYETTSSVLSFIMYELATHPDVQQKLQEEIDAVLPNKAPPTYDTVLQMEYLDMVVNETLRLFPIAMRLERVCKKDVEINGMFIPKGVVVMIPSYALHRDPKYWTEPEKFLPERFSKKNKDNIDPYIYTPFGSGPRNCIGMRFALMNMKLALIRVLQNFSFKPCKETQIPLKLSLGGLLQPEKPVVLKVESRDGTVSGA
CYP2D6, sequence (P10635 whole entry): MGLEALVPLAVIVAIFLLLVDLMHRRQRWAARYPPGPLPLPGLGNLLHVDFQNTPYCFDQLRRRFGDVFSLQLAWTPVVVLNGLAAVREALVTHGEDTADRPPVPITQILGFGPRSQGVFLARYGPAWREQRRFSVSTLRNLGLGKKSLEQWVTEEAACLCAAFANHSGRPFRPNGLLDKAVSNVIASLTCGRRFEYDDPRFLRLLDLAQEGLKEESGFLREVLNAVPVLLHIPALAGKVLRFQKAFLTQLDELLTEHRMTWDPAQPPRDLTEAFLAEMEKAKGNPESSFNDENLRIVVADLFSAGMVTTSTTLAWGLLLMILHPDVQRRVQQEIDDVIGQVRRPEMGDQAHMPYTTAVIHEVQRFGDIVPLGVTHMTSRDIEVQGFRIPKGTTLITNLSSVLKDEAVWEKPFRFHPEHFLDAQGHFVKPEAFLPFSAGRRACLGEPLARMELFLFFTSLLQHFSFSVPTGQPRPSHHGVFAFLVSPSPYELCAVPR

In data set [1], `CC(=O)N(C)C1(c2ccccc2)CCN(CCC[C@]2(c3ccc(Cl)c(Cl)c3)CCCN(C(=O)c3ccccc3)C2)CC1` [osanetant, (R)—N-(1-(3-(1-benzoyl-3-(3,4-dichlorophenyl)piperidin-3-yl)propyl)-4-phenylpiperidin-4-yl)-N-methylacetamide] returned a Blood_Liver_transport_k of 0.011 min⁻¹, a Q of 13.9 L/min, a Vol_central of 620 L and a Vol_periph of 1768 L. In data set [1], this compound yielded a ka of 0.039 min⁻¹. The Bioavailability in data set [2] is given as 40%. Further, the Brain/plasma concentration in data set [3] is on record as 0.8. For the same compound, the clearance mechanism entry at CYP3A4 is given as “CYP3A4 metabolism in the liver is the primary clearance mechanism”. Moreover, on CYP2D6, the CYP2D6 activity entry was “inhibits CYP2D6 activity”.

Turning to `CCNC(=O)[C@@H]1CCCN1C(=O)[C@H](CCCNC(=N)N)NC(=O)[C@H](CC(C)C)NC(=O)[C@@H](CC(C)C)NC(=O)[C@H](Cc1ccc(O)cc1)NC(=O)[C@H](CO)NC(=O)[C@H](Cc1c[nH]c2ccccc12)NC(=O)[C@H](Cc1c[nH]cn1)NC(=O)[C@@H]1CCC(=O)N1` [leuprolide], the “patients who experience increased frequency and/or duration of VMS” value in data set [4] is “about 80%”.
